The record followed here is ChEMBL document CHEMBL3808370, “Nortriketones: Antimicrobial Trimethylated Acylphloroglucinols from Ma̅nuka (Leptospermum scoparium)” (J Nat Prod, 2016).

Values after ≈ are worked out from the molar mass of the structure shown. Active and inactive are the calls of the source. The calls are words filed in the database; no cut-off is given here.

The subject of one assay is Enterococcus faecalis. Put plainly: Antibacterial activity against vancomycin-resistant Enterococcus faecalis incubated for 18 to 24 hrs by broth microdilution method. The class given is functional. (Broth dilution looks for growth in wells or tubes with falling amounts of substance.)
In a further assay the test system is Staphylococcus aureus. Description: Antibacterial activity against methicillin-resistant Staphylococcus aureus by two-fold broth dilution method. The class given is functional.
A further assay has as its system Escherichia coli. Put plainly: Antibacterial activity against Escherichia coli. It counts as functional.
In assay [1] the target is T1, 4-hydroxyphenylpyruvate dioxygenase (Arabidopsis thaliana, UniProt P93836).
T1 sequence (P93836 whole entry): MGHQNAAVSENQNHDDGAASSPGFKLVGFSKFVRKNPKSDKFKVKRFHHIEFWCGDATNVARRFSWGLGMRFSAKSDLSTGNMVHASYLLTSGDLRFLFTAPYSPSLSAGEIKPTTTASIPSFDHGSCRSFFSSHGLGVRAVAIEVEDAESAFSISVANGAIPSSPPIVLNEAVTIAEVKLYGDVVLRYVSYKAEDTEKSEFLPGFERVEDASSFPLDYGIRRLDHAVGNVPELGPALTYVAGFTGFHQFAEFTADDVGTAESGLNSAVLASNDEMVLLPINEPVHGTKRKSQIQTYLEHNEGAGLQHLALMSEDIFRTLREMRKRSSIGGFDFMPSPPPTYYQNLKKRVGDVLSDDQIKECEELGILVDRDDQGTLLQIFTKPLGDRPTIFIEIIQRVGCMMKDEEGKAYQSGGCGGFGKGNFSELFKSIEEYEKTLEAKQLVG
Description: Inhibition of recombinant Arabidopsis thaliana HPPD overexpressed in Escherichia coli JM105 cells using 4-HPP as substrate preincubated for 15 mins followed by substrate addition and subsequent incubation for 15 mins by HPLC analysis. As to conditions: read-out: I50.

For assay [2], the target named is T2, 4-hydroxyphenylpyruvate dioxygenase (Arabidopsis thaliana) (UniProt P93836).
T2 sequence (whole entry): T1 sequence (P93836 whole entry)
Description: Inhibition of recombinant Arabidopsis thaliana HPPD overexpressed in Escherichia coli JM105 cells at 100 uM using 4-HPP as substrate preincubated for 15 mins followed by substrate addition and subsequent incubation for 15 mins by HPLC analysis.

Regarding `CC1(C)C(=O)C(C(=O)CCc2ccccc2)=C(O)C(C)(C)C1=O`, the MIC (as a rule, the lowest concentration that inhibits growth of the organism) against Enterococcus faecalis is 6 µg/mL (≈ 19.1 µM); against Staphylococcus aureus it was 6 µg/mL (≈ 19.1 µM); against Escherichia coli, more than 512 µg/mL. Further, in assay [1], the IC50 amounted to 750 nM.

Turning to `CC1=C(O)C(C)(C)C(=O)C(C(=O)CCc2ccccc2)=C1O`, the MIC with Enterococcus faecalis is 64 µg/mL (≈ 213 µM); against Staphylococcus aureus it was 64 µg/mL (≈ 213 µM); in the assay with Escherichia coli, more than 512 µg/mL. Moreover, in assay [2], the inhibition result was “inactive”.

Take `CC1=C(O)C(C)(C)C(=O)C(C(=O)CC(C)C)=C1O`: in assay [2], the inhibition result was “inactive”.

For the compound `CC1=C(O)C(C)(C)C(=O)C(C(=O)C(C)C)=C1O`, in assay [2], the inhibition entry was “inactive”.
